Test in all cases: biochemical
Holding throughout (parameters): Thermo Fisher SelectScreen kinase panel: Z'-LYTE and Adapta activity, LanthaScreen binding
(TR-FRET usually uses a lanthanide donor and a delayed reading to cut background.)

One test deals with DYRK1A (Homo sapiens, UniProt Q13627). The method, boiled down:
(§1)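 Single-concentration panel: 10 µM GNE684 in KINOMEscan scanMAX binding (468 kinases) and in a 221-kinase panel run as Z'-LYTE/Adapta activity or LanthaScreen binding assays.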

A further test has as its target T1, CHK2 (Homo sapiens, UniProt O96017).
T1 construct: gene CHEK2
The method, boiled down:
as §1

A further test addresses CDK9/cyclinT1 (Homo sapiens, UniProt P50750). The method, boiled down: as §1
Another test deals with FLT4 (Homo sapiens, UniProt P35916). The method, boiled down: as §1
The target in a further test is T2, DRAK1 (Homo sapiens, UniProt Q9UEE5).
T2 construct: gene STK17A
The method, boiled down: as §1

A further test deals with PASK (Homo sapiens, UniProt Q96RG2). In outline: as §1
For another test, the target named is MARK1 (Homo sapiens, UniProt Q9P0L2). The method, boiled down: as §1
Another test concerns the target T3, PDK1(direct) (Homo sapiens, UniProt O15530).
T3 construct: gene PDPK1; direct
In outline: as §1

Another test deals with T4, RSK3 (Homo sapiens, UniProt Q15349).
T4 construct: gene RPS6KA2
In outline:
as §1

A further test has as its target BLK (Homo sapiens, UniProt P51451). In outline: as §1
In a further test the target is DAPK1 (Homo sapiens, UniProt P53355). The method, boiled down: as §1
The next test addresses MTOR (Homo sapiens, UniProt P42345). In outline:
as §1

In a further test the target is KIT (Homo sapiens, UniProt P10721). In outline:
as §1

In the next test the target is IRAK4 (Homo sapiens, UniProt Q9NWZ3). The method, boiled down:
as §1

For a further test, the target named is KDR (Homo sapiens, UniProt P35968). In outline:
as §1

A further test deals with T5, KHS1 (Homo sapiens, UniProt Q9Y4K4).
T5 construct: gene MAP4K5
In outline: as §1

The target of the next test is T6, RSK2 (Homo sapiens, UniProt P51812).
T6 construct: gene RPS6KA3
The method, boiled down: as §1

The next test addresses T7, PI3K-G (Homo sapiens, UniProt P48736).
T7 construct: gene PIK3CG; p110gamma
The method, boiled down:
as §1

For the next test, the target named is STK33 (Homo sapiens, UniProt Q9BYT3). The method, boiled down:
as §1

In the next test the target is T8, PRK1 (Homo sapiens, UniProt Q16512).
T8 construct: gene PKN1
In outline: as §1

Another test addresses LIMK1 (Homo sapiens, UniProt P53667). The method, boiled down:
as §1

Another test addresses T9, PhK_gamma1 (Homo sapiens, UniProt Q16816).
T9 construct: gene PHKG1
The method, boiled down:
as §1

For the next test, the target named is FGR (Homo sapiens, UniProt P09769). In outline: as §1

T5 sequence (Q9Y4K4 whole entry): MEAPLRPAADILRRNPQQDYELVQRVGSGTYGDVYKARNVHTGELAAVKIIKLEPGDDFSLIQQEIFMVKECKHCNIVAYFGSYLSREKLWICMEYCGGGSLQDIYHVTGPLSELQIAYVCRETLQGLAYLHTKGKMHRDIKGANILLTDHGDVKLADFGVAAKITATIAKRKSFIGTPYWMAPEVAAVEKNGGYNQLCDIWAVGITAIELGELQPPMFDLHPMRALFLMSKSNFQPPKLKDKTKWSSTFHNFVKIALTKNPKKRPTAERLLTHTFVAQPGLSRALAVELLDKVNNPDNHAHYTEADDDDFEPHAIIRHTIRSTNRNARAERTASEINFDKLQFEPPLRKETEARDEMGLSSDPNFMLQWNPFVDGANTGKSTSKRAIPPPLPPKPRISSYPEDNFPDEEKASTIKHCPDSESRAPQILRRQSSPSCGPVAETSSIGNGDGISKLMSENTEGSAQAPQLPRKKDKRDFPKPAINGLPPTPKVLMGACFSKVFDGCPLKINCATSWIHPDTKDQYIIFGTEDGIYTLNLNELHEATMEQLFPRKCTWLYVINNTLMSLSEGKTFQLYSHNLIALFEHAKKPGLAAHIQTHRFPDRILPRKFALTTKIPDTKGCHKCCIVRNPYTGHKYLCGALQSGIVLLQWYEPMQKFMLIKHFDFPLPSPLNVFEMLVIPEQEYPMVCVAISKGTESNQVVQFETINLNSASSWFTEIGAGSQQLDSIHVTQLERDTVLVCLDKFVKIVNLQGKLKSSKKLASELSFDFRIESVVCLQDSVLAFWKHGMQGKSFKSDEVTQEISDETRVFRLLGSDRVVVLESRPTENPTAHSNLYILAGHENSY
T7 sequence (P48736 whole entry): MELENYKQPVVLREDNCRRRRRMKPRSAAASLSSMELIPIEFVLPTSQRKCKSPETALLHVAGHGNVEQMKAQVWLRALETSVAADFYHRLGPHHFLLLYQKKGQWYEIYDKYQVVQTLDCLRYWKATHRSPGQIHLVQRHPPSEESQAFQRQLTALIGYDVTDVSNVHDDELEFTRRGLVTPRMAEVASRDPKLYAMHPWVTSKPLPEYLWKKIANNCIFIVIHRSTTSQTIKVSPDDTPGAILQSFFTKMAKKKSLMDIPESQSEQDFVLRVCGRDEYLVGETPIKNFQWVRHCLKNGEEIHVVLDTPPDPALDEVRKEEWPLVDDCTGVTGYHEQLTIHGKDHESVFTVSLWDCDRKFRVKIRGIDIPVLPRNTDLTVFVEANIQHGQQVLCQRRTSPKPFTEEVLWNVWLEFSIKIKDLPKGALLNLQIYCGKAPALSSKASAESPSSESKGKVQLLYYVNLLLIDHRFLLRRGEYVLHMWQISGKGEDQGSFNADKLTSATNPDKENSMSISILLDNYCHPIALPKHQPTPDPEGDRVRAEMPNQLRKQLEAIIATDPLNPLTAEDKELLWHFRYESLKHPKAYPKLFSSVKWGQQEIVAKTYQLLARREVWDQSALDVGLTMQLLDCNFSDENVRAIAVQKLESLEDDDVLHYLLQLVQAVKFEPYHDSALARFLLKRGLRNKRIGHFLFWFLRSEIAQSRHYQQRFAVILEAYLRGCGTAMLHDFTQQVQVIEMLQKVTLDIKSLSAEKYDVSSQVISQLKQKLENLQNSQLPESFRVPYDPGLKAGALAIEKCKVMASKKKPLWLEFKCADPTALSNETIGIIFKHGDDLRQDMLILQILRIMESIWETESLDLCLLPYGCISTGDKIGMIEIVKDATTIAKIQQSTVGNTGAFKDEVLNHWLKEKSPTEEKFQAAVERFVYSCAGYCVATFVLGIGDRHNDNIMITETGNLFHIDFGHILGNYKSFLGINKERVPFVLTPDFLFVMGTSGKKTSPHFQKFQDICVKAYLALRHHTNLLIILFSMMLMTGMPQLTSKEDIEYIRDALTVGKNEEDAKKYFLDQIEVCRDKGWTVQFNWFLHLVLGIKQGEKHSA
MARK1, sequence (Q9P0L2 whole entry): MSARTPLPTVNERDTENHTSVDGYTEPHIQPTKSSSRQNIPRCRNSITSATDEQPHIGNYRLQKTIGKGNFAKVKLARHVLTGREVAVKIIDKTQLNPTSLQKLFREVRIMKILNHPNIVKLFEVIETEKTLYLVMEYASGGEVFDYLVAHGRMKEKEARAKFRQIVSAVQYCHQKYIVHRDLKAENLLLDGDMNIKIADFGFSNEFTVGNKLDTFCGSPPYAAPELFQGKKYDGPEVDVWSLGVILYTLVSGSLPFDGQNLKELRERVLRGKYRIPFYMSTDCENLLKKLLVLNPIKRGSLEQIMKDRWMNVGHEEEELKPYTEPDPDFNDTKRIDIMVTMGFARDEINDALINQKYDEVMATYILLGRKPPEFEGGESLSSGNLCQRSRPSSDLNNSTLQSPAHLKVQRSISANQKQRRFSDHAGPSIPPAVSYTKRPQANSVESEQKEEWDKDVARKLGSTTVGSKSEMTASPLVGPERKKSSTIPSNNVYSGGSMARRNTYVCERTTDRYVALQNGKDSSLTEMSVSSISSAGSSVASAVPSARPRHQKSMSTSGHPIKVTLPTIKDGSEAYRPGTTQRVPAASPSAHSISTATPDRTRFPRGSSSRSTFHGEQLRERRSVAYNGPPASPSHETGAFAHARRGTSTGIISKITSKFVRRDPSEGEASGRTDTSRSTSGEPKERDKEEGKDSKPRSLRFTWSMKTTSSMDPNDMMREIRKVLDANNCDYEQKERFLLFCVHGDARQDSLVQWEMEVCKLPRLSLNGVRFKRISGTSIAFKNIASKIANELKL
LIMK1, sequence (P53667 whole entry): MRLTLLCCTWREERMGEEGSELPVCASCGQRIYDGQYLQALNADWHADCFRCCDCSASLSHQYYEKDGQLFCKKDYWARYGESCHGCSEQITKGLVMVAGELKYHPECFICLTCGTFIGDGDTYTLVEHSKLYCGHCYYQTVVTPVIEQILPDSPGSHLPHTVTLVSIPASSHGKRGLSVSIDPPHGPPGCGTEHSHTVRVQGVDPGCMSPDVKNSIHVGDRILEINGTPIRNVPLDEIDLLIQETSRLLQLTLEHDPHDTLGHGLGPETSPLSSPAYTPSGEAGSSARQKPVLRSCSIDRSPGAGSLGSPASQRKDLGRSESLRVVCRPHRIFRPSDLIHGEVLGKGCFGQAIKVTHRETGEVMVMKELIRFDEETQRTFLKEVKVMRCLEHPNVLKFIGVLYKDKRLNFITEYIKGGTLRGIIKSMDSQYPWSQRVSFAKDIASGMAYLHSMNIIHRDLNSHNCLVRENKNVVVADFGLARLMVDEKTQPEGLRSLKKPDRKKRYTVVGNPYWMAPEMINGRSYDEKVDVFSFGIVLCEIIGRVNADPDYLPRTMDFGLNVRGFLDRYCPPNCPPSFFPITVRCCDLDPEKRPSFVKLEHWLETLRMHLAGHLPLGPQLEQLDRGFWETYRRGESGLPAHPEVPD
PASK, sequence (Q96RG2 whole entry): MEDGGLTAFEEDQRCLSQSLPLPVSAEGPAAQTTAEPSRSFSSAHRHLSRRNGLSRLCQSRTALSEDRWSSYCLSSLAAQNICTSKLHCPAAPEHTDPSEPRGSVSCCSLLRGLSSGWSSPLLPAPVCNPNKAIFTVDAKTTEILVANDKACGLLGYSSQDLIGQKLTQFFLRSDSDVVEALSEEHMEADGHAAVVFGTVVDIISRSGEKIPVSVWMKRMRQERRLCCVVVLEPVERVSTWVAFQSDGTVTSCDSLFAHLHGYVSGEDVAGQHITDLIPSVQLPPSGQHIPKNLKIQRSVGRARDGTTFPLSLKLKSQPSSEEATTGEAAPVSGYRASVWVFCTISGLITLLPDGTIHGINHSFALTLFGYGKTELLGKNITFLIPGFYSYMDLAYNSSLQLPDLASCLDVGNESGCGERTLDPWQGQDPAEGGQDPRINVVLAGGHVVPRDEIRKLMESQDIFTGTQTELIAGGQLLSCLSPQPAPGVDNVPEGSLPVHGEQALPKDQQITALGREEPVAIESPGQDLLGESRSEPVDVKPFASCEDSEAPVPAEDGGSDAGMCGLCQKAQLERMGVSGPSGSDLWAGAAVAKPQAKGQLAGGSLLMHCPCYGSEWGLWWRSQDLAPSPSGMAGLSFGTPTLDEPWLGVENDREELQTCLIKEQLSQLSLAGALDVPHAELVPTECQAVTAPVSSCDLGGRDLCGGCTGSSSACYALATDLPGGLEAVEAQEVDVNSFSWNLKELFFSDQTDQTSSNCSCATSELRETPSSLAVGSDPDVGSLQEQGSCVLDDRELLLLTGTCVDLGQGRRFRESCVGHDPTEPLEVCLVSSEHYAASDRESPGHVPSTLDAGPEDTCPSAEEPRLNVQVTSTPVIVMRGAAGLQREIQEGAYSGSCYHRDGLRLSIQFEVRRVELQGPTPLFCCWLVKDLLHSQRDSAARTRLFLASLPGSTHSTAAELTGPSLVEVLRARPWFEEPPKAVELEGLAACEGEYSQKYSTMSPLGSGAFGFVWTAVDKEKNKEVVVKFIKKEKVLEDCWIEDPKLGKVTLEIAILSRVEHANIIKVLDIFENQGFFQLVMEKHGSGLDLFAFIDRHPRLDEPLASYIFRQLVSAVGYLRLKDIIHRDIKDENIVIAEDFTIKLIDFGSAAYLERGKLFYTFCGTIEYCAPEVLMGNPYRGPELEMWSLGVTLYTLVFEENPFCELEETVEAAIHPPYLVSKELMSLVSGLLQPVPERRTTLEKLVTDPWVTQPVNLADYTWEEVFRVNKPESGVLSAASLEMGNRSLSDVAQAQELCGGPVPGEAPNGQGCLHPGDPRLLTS
T9 sequence (Q16816 whole entry): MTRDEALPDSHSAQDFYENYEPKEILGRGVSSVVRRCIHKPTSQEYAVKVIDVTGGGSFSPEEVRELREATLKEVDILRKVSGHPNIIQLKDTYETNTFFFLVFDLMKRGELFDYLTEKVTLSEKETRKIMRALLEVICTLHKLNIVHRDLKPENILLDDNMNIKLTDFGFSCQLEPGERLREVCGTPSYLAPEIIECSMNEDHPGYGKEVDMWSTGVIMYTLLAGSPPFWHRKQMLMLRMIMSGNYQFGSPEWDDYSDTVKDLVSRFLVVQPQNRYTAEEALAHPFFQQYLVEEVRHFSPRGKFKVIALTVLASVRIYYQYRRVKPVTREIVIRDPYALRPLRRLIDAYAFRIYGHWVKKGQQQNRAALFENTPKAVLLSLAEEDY

Turning to `COc1cc2c(cn1)N(C)C(=O)[C@@H](NC(=O)c1nc3n(n1)[C@H](c1ccccc1)CC3)CC2` [GNE684, (S)-N-((S)-7-methoxy-1-methyl-2-oxo-2,3,4,5-tetrahydro-1H-pyrido[3,4-b]azepin-3-yl)-5-phenyl-6,7-dihydro-5H-pyrrolo[1,2-b][1,2,4]triazole-2-carboxamide], the inhibition at 10 µM was found to be 2% on DYRK1A; 5% on CHK2; 9% on CDK9/cyclinT1; 14% on FLT4; 0.5% at DRAK1; 4.5% on PASK. For the same molecule, the inhibition at 10 µM is 6.5% at MARK1; 5% at PDK1(direct); 6% on RSK3; 6.5% at BLK; -11.5% at DAPK1; 2% on MTOR. The inhibition at 10 µM is 3% at KIT; 5% on IRAK4; -0.5% at KDR; 12% on KHS1; 4% on RSK2; 13.5% at PI3K-G. Moreover, the inhibition at 10 µM at STK33 is 0%; on PRK1 it was 2.5%; at LIMK1, 8.5%; at PhK_gamma1, 0%; at FGR, 8%.

As a reminder, the inhibition is the relative decrease from the control value, in per cent.

The record behind these values is article PMC7206119, “RIP1 inhibition blocks inflammatory diseases but not tumor growth or metastases” (Cell Death and Differentiation, 2019).
